{FL} = fluorescein region
Key:
human fibroblasts = test: Senescence-associated β-galactosidase activity staining; assay type: cell-based; settings: for β-galactosidase activity shown from (days after treatment), entry of cellular senescence: fibroblasts PDL 16, 400 μM
Protocol: The fibroblasts subcultured in Exmaple I-1, PDL of which are 16, were placed in culture plate and were kept to arrest cell cycle to G1 phase in incubator (37° C., 5% CO2 and humidified) for a week. The cell cycle arrest was confirmed as follows: Following the fixation of the cells with cold ethanol, the cells were stained for 30 min. at room temperature using PI staining solution (containing 50 μg/ml of Rnase A and 50 μg/ml of propinium iodide in PBS). Thereafter, using FACS (fluorescence-activated cell sorter), the cell cycle was confirmed by observing DNA phenotype, i.e., 2n or 4n.
The fibroblasts arrested in G1 phase were treated with 400 μM H2O2 and then incubated for 3 hrs., followed by washing with 10 ml of PBS. Then, the cells were subcultured at a 1:4 ratio and under normal conditions for cell culure (37° C., 5% CO2 and humidified), cell culture was continuously performed. Following 7 days after the treatment, the cells were determined in terms of senescence using senescence-associated […] activity staining as described in Example III.
The fibroblasts subcultured in Exmaple I-1, PDL of which are 16, were placed in culture plate containing DMEM and were cultured in incubator (37° C., 5% CO2 and humidified) for 14 hrs. Thereafter, the fibroblasts were treated with 400 μM Hydroxyurea and then incubated continuously. The medium was renewed once per 3 days with the addition of fresh 400 μM Hydroxyurea. Following 14 days after the treatment, the cells were determined in terms of senescence using senescence-associated […] activity staining as described in Example III.
A senescence-associated […] activity staining (hereinafter referred to as “SA β-gal activity staining) was performed according to the method of Dimri et al. (Dimri G P et al., Proc. Natl. Acad. Sci., 92:9363(1995)): The semiconfluent fibroblasts were washed twice with 10 ml of PBS and fixed with 2% paraformaldehyde in PBS for 5 min. at room temperature. […]

p16 = test: Western blotting of young cells treated with demethylating agent; assay type: cell-based, human; settings: young fibroblasts PDL 20; 1 μM; FIG. 23b
Protocol: (§1) The induction of cellular senescence was verified by SA β-gal activity staining as Example III. To investigate the expression of related proteins, the treated cells were harvested in different days and western blotting was performed as previously described. In western blotting, anti-p53 antibody, anti-p16 antibody, anti-caveolin-1 antibody and anti-actin antibody were purchased from Santa Cruz Biotechnology, Inc.

caveolin-1 [1] = test: as above; assay type: cell-based, human; settings: young fibroblasts PDL 20; 1 μM; FIG. 23b
Protocol: as §1

p-Erk-1/2 = test: Immunostaining of p-Erk-1/2 translocation to nucleus; assay type: cell-based, human; settings: old cells; EGF; FIG. 22
Protocol: To verify that Erk-1/2 kinase activated in Example XVIII is translocated into nucleus and regulate sequentially the expression of other genes, immunostaining was performed as follows: Young and old fibroblasts were treated with antisense oligonucleotide and EGF as Example XIII. The treated cells were sequentially incubated with anti-p-Erk (phosphorylated-Erk) antibody (New England Biotech) overnight at 4° C. and then FITC-conjugated secondary antibody (Santa Cruz) for 1 hr at room temperature. For the purpose of visualizing nucleus, DAPI (Molecular Probe) was also added. The image of p-Erk-1/2 localization was visualized using confocal microscope (Biorad, #MRC1024), which is found in FIGS. 21 and 22. In FIGS. 21 and 22, arrows indicate translocation of p-Erk-1/2 kinase into nucleus.

caveolin-1 [2] = test: Immunostaining of caveolin-1 in old fibroblasts transfected with oligonucleotide; assay type: cell-based, human; settings: old fibroblasts PDL 64; for expression of caveolin-1 in cell (immunostaining): with a lapse of treatment time, FIG. 19
Protocol: (§2) Old human fibroblasts (PDL 64) were placed onto 24 well-plate or dish containing DMEM without FBS and incubated in incubator (37° C., 5% CO2) for 12 hr. After incubation, 1-5 μg of 100 μM antisense oligonucleotides synthesized and Plus reagent (Gibco-BRL) were mixed with 500 μl of DMEM and subsequently reacted for 15 min. at room temperature, and the resulting mixture was well mixed with 500 μl of the mixture containing 12 μl of Lipofectamine (Gibco-BRL) and DMEM, followed by standing the mixture for 15 min. at room temperature in order to form liposome complex. The incubated cells were washed twice with DMEM (no serum) and treated with 1 ml of the liposome complex, followed by incubation for 3 hr at 37° C. To the transfected cells, 1-5 ml of DMEM containing 10% FBS was added and the incubation was subsequently carried out for 24 hr, after which the media was changed with DMEM containing 10% FBS. Following incubation for a given period, immunostaining and western blotting were carried out as follows:
The cells treated with antisense oligonucleotide were fixed with 0.5 ml of 4% paraformaldehyde for 20 min at room temperature and then permeabilized with 0.5 ml of 0.5% Triton X-100 in PBS for 10 min, followed by blocking with 2% BSA (in PBS). The cells were sequentially incubated with anti-caveolin-1 antibody (Transduction Laboratory) overnight at 4° C. and then rhodamine-conjugated secondary antibody (Santa Cruz) for 1 hr at room temperature. For the purpose of visualizing nucleus, DAPI (Molecular Probe) was also added. The observation was performed using confocal microscope (Biorad, #MRC1024).

caveolin-1 [3] = test: Western blotting of caveolin-1 in cells treated with oligonucleotides; assay type: cell-based, human; settings: old fibroblasts PDL 64
Protocol: Analysis of caveolin expression, in young cells (PDL less than 30), middle cells (PDL 35-45) and old cells (PDL more than 60) of Human fibroblasts or IMR-90 cells, was performed by Western blotting as described in Example V. Monoclonal anti-caveolin-1 antibody, monoclonal anti-caveolin-2 antibody and monoclonal anti-caveolin-3 antibody were purchased from Transduction Laboratories.
as §2, with “follows: […]” for “follows:”

Erk-1/2 = test: Western blotting of Erk-1/2 activation upon EGF after oligonucleotide transfection; assay type: cell-based, human; settings: old cells; 100 ng/ml EGF; FIG. 20
Protocol: Young cells (PDL less than 30), middle cells (PDL 35-45) and old cells (PDL more than 60) of Human fibroblasts or IMR-90 cells, respectively were stimulated with 100 ng/ml EGF (Gibco-BRL, human, recombinant). After stimulation, western blotting was performed as described in Example V. Monoclonal anti-phospho-Erk-1/2 antibody, polyclonal anti-Erk-1/2 antibody and polyclonal anti-EGFR antibody were purchased from Santa Cruz Biotechnology, Inc. As found in FIG. 13a, in both young and middle-aged cells, Erk-1/2 kinases were phosphorylated (activated) within 5 min, and the resulting activation was sustained for 15 min after EGF stimulation. However, the phosphorylation of Erk-1/2 kinase from old cells was not detected until 15 min had lapsed. The expression level of Erk kinase and EGFR was not changed by the increase of population doubling in Western blot (see FIG. 13b), despite the down-regulation of EGF signaling to Erk kinases.
The old and young fibroblasts were treated with antisense oligonucleotide as described in Example XVII. The EGF stimulation and western blotting were carried out as described in Example XI. FIG. 20 represents the results of this Example.

[4] = tested on: receptor-mediated endocytosis; test: Internalization of rhodamine-conjugated transferrin in artificially induced senescent cells (confocal microscopy); assay type: cell-based, human; settings: 25 μg/ml rhodamine-conjugated transferrin, FIG. 4

With Nc1ncn([C@H]2C[C@H](O)[C@@H](CO)O2)c(=O)n1 [5-aza-deoxycytidine] the “SA β-gal activity staining (induction of cellular senescence)” value (human fibroblasts; young fibroblasts PDL 20, 1 μM, treated for about 2 weeks, FIG. 23a) was “senescent cell-like phenomenon”, the “expression of p16” value (p16) was “increased” and the “expression of caveolin-1” value (caveolin-1 [1]) was “increased”.

“5′-tttgcccccaga-3′ (antisense TTTGCCCCCAGA; all phosphorothioate, 5' {FL}, sugars by position and methylation of C not given here) [antisense oligonucleotide]” was tested, and the p-Erk-1/2 in nucleus (p-Erk-1/2) was “vice versa”, the cell morphology (caveolin-1 [2]) was “enlarged and spread morphology to smaller and spindle morphology” and the “expression of caveolin-1 in cell (immunostaining)” value (caveolin-1 [2]) was “dramatically decreased”. For the same molecule, the “caveolin-1 band (western blotting)” value (caveolin-1 [3]) was “weaker band corresponding to caveolin-1” and the “Erk-1/2 activation by EGF” value (Erk-1/2) was “highly increased”.

For OO [H2O2], the “function of receptor-mediated endocytosis (internalization of fluorescent transferrin)” value [4] was “reduced function of receptor-mediated endocytosis” and the “β-galactosidase activity shown from (days after treatment), entry of cellular senescence” value (human fibroblasts) was 10 days.

For NC(=O)NO [hydroxyurea, Hydroxyurea], the “function of receptor-mediated endocytosis (internalization of fluorescent transferrin)” value [4] was “reduced function of receptor-mediated endocytosis” and the “β-galactosidase activity shown from (days after treatment), entry of cellular senescence” value (human fibroblasts) was 14 to 20 days.

For “5′-atgtctgggggc-3′ (sense ATGTCTGGGGGC; all phosphorothioate, 5' {FL}, sugars by position and methylation of C not given here) [sense oligonucleotide, sense oligonucleotide for the same region of caveolin-1 mRNA, control]”, the p-Erk-1/2 in nucleus (p-Erk-1/2) was “no p-Erk-1/2 in nucleus”, the cell morphology (caveolin-1 [2]) was “did not show such cell-morphology alteration” and the “expression of caveolin-1 in cell (immunostaining)” value (caveolin-1 [2]) was “not changed”. The “Erk-1/2 activation by EGF” value (Erk-1/2) was “no alteration in Erk-1/2 activation”.
